# Reference: patent EP0413289B1 (priority 1989, dated 1991)
# Experiments:
# [1] = tested on: panel of fifteen human rhinovirus (HRV) serotypes; experiment: plaque reduction assay, panel of fifteen human rhinovirus serotypes (MIC50/MIC80); assay type: cell-based; settings: for MIC50: concentration required to inhibit 50% of the tested serotypes, HeLa (Wisconsin) cells, read-out: MIC₅₀ (Rhinovirus); for MIC₈₀ (N) (Rhinovirus): concentration required to inhibit 80% of the tested serotypes, N in parentheses = number of serotypes tested
# Method: (§1) The MIC values were determined by a standard plaque reduction assay as follows: HeLa (Wisconsin) cells in monolayers were infected at a concentration of virus to give approximately 80 plaques per monolayer in the virus control (no drug present). The compound to be tested was serially diluted and included in the agar-medium overlay and in some cases, during the adsorption period as well. The MIC was determined to be that concentration of compound which reduced the number of plaques by 50% with respect to the untreated virus control.
# (§2) In the standard test procedures, the compounds were tested against a panel of fifteen human rhinovirus (HRV) serotypes, namely HRV-2, -1A, -1B, -6, -14, -21, -22, -15, -25, -30, -50, -67, -89, -86 and -41. The MIC value for each rhinovirus serotype was determined, and the efficacy of each compound was determined in terms of MIC₅₀ and MIC₈₀ values, which is the concentration of the compound required to inhibit 50% and 80%, respectively, of the tested serotypes.
# The following Table gives the testing results with the compounds of the invention. For some of the compounds, the MIC₅₀ and MIC₈₀ values are based on the testing of fewer than 15 rhinovirus serotypes. In these cases the number of serotypes (N) is indicated in parentheses after the MIC₈₀ figure.
# Polio 2 = experiment: microbe, parasite or virus in culture; assay type: cell-based; settings: HeLa, read-out: MIC (Polio 2)
# HRV-14 = experiment: plaque reduction assay, rhinovirus serotype 14; assay type: cell-based, human rhinovirus (HRV); settings: 50% plaque reduction, HeLa (Wisconsin) cells, read-out: MIC
# Method: as §1, §2
# (§3) The following Table compares the MIC values for the compound of Example 10(c) and the methylated derivative of Example 11(c) against 15 rhinovirus serotypes: […]
# HRV-1A = experiment: plaque reduction assay, rhinovirus serotype 1A; assay type: cell-based, human rhinovirus (HRV); settings: 50% plaque reduction, HeLa (Wisconsin) cells, read-out: MIC
# Method: as §1, §2, §3
# HRV-1B = experiment: plaque reduction assay, rhinovirus serotype 1B; assay type: cell-based, human rhinovirus (HRV); settings: 50% plaque reduction, HeLa (Wisconsin) cells, read-out: MIC
# Method: as §1, §2, §3
# HRV-6 = experiment: plaque reduction assay, rhinovirus serotype 6; assay type: cell-based, human rhinovirus (HRV); settings: Enterovirus, HRV6, 50% plaque reduction, HeLa (Wisconsin) cells, read-out: MIC
# Method: as §1, §2, §3
# HRV-2 = experiment: plaque reduction assay, rhinovirus serotype 2; assay type: cell-based, human rhinovirus (HRV); settings: 50% plaque reduction, HeLa (Wisconsin) cells, read-out: MIC
# Method: as §1, §2, §3
# HRV-30 = experiment: plaque reduction assay, rhinovirus serotype 30; assay type: cell-based, human rhinovirus (HRV); settings: Enterovirus, HRV30, 50% plaque reduction, HeLa (Wisconsin) cells, read-out: MIC
# Method: as §1, §2, §3
# HRV-67 = experiment: plaque reduction assay, rhinovirus serotype 67; assay type: cell-based, human rhinovirus (HRV); settings: Enterovirus, HRV67, 50% plaque reduction, HeLa (Wisconsin) cells, read-out: MIC
# Method: as §1, §2, §3
# HRV-21 = experiment: plaque reduction assay, rhinovirus serotype 21; assay type: cell-based, human rhinovirus (HRV); settings: Enterovirus, HRV21, 50% plaque reduction, HeLa (Wisconsin) cells, read-out: MIC
# Method: as §1, §2, §3
# HRV-25 = experiment: plaque reduction assay, rhinovirus serotype 25; assay type: cell-based, human rhinovirus (HRV); settings: Enterovirus, HRV25, 50% plaque reduction, HeLa (Wisconsin) cells, read-out: MIC
# Method: as §1, §2, §3
# HRV-41 = experiment: plaque reduction assay, rhinovirus serotype 41; assay type: cell-based, human rhinovirus (HRV); settings: Enterovirus, HRV41, 50% plaque reduction, HeLa (Wisconsin) cells, read-out: MIC
# Method: as §1, §2, §3
# HRV-89 = experiment: plaque reduction assay, rhinovirus serotype 89; assay type: cell-based, human rhinovirus (HRV); settings: 50% plaque reduction, HeLa (Wisconsin) cells, read-out: MIC
# Method: as §1, §2, §3
# HRV-22 = experiment: plaque reduction assay, rhinovirus serotype 22; assay type: cell-based, human rhinovirus (HRV); settings: Enterovirus, HRV22, 50% plaque reduction, HeLa (Wisconsin) cells, read-out: MIC
# Method: as §1, §2, §3
# HRV-50 = experiment: plaque reduction assay, rhinovirus serotype 50; assay type: cell-based, human rhinovirus (HRV); settings: Enterovirus, HRV50, 50% plaque reduction, HeLa (Wisconsin) cells, read-out: MIC
# Method: as §1, §2, §3
# HRV-15 = experiment: plaque reduction assay, rhinovirus serotype 15; assay type: cell-based, human rhinovirus (HRV); settings: Enterovirus, HRV15, 50% plaque reduction, HeLa (Wisconsin) cells, read-out: MIC
# Method: as §1, §2, §3
# HRV-86 = experiment: plaque reduction assay, rhinovirus serotype 86; assay type: cell-based, human rhinovirus (HRV); settings: Enterovirus, HRV86, 50% plaque reduction, HeLa (Wisconsin) cells, read-out: MIC
# Method: as §1, §2, §3
structure (smiles),measurement,setting,value
"Cc1cc(CCCCCOc2c(C)cc(-c3nc(C)no3)cc2C)on1 [2(b), 5-{5-[2,6-dimethyl-4-(3-methyl-1,2,4-oxadiazol-5-yl)phenoxy]pentyl}-3-methylisoxazole]",MIC50,[1],0.053 mg/L
same,MIC₈₀ (N) (Rhinovirus),[1],0.42 (6) micrograms per milliliter
"Cc1cc(CCCOc2c(C)cc(-c3nc(C)no3)cc2C)on1 [3(b), 5-{3-[2,6-Dimethyl-4-(3-methyl-1,2,4-oxadiazol-5-yl)-phenoxy]propyl}-3-methylisoxazole]",MIC50,[1],0.026 mg/L
same,MIC₈₀ (N) (Rhinovirus),[1],0.12 (15) micrograms per milliliter
"CCc1cc(CCCOc2c(C)cc(-c3nc(C)no3)cc2C)on1 [4(d), 5-{3-[2,6-Dimethyl-4-(3-methyl-1,2,4-oxadiazol-5-yl)-phenoxy]propyl}-3-ethylisoxazole]",MIC50,[1],0.042 mg/L
same,MIC₈₀ (N) (Rhinovirus),[1],0.15 (15) micrograms per milliliter
"CCCc1cc(CCCOc2c(C)cc(-c3nc(C)no3)cc2C)on1 [5(e), 5-{3-[2,6-dimethyl-4-(3-methyl-1,2,4-oxadiazol-5-yl)phenoxy]propyl}-3-(n-propyl)isoxazole]",MIC50,[1],0.036 mg/L
same,MIC₈₀ (N) (Rhinovirus),[1],0.06 (7) micrograms per milliliter
"Cc1cc(CCCOc2c(C)cc(-c3nnc(C)o3)cc2C)on1 [12(d), 5-{3-[2,6-Dimethyl-4-(5-methyl-1,3,4-oxadiazol-2-yl)-phenoxy]propyl}-3-methylisoxazole]",MIC50,[1],0.054 mg/L
same,MIC₈₀ (N) (Rhinovirus),[1],0.35 (6) micrograms per milliliter
"Cc1cc(CCCCCOc2ccc(-c3nnco3)cc2)on1 [Example 1, 3-Methyl-5-{5-[4-(1,3,4-oxadiazol-2-yl)phenoxy]pentyl}-isoxazole, reference compound]",MIC₈₀ (N) (Rhinovirus),[1],2.56 (1) micrograms per milliliter
same,EC50,Polio 2,0.05 mg/L
"Cc1cc(CCCCCOc2c(C)cc(-c3noc(C)n3)cc2C)on1 [Example 6, 5-{5-[2,6-dimethyl-4-(5-methyl-1,2,4-oxadiazol-3-yl)phenoxy]pentyl}-3-methylisoxazole]",MIC50,[1],0.018 mg/L
same,MIC₈₀ (N) (Rhinovirus),[1],0.10 (5) micrograms per milliliter
"Cc1cc(CCCOc2c(C)cc(-c3noc(C)n3)cc2C)on1 [Example 7, 5-{3-[2,6-Dimethyl-4-(5-methyl-1,2,4-oxadiazol-3-yl)phenoxy]propyl}-3-methylisoxasole]",MIC50,[1],0.012 mg/L
same,MIC₈₀ (N) (Rhinovirus),[1],0.069 (13) micrograms per milliliter
"CCc1cc(CCCOc2c(C)cc(-c3noc(C)n3)cc2C)on1 [Example 8(c), 5-{3-[2,6-dimethyl-4-(5-methyl-1,2,4-oxadiazol-3-yl)phenoxy]propyl}-3-ethylisoxazole]",MIC50,[1],0.017 mg/L
same,MIC₈₀ (N) (Rhinovirus),[1],0.05 (6) micrograms per milliliter
"CCCc1cc(CCCOc2c(C)cc(-c3noc(C)n3)cc2C)on1 [Example 9, 5-{3-[2,6-Dimethyl-4-(5-methyl-1,2,4-oxadiazol-3-yl)phenoxy]propyl}-3-propylisoxazole]",MIC50,[1],0.025 mg/L
same,MIC₈₀ (N) (Rhinovirus),[1],0.04 (6) micrograms per milliliter
"Cc1cc(CCCCCOc2c(Cl)cc(-c3nnco3)cc2Cl)on1 [Example 10(c), 5-{5-[2,6-Dichloro-4-(1,3,4-oxadiazol-2-yl)phenoxy]-pentyl}-3-methylisoxazole, reference compound]",EC50,HRV-14,2.02 mg/L
same,EC50,HRV-1A,1.45 mg/L
same,EC50,HRV-1B,0.53 mg/L
same,EC50,HRV-6,7.06 mg/L
same,EC50,HRV-2,0.41 mg/L
same,EC50,HRV-30,0.1 mg/L
same,EC50,HRV-67,0.64 mg/L
same,EC50,HRV-21,0.24 mg/L
same,EC50,HRV-25,2.42 mg/L
same,EC50,HRV-41,2.76 mg/L
same,EC50,HRV-89,0.28 mg/L
same,EC50,HRV-22,0.45 mg/L
same,MIC50,[1],0.25 mg/L
same,MIC₈₀ (N) (Rhinovirus),[1],0.91 micrograms per milliliter
same,EC50,HRV-50,0.091 mg/L
same,EC50,Polio 2,2.24 mg/L
same,EC50,HRV-15,1.92 mg/L
same,EC50,HRV-86,1.28 mg/L
"Cc1cc(CCCCCOc2c(Cl)cc(-c3nnc(C)o3)cc2Cl)on1 [Example 11(c), 5-{5-[2,6-dichloro-4-(5-methyl-1,3,4-oxadiazol-2-yl)phenoxy]pentyl}-3-methylisoxazole]",EC50,HRV-14,0.19 mg/L
same,EC50,HRV-1A,0.44 mg/L
same,EC50,HRV-1B,0.14 mg/L
same,EC50,HRV-6,0.46 mg/L
same,EC50,HRV-2,0.016 mg/L
same,EC50,HRV-30,0.031 mg/L
same,EC50,HRV-67,0.1 mg/L
same,EC50,HRV-21,0.0092 mg/L
same,EC50,HRV-25,0.7 mg/L
same,EC50,HRV-41,99 mg/L
same,EC50,HRV-89,0.01 mg/L
same,EC50,HRV-22,0.018 mg/L
same,MIC50,[1],0.14 mg/L
same,MIC₈₀ (N) (Rhinovirus),[1],0.46 (15) micrograms per milliliter
same,EC50,HRV-50,0.041 mg/L
same,EC50,HRV-15,0.42 mg/L
same,EC50,HRV-86,0.57 mg/L
"Cc1cc(CCCCCCCOc2ccc(-c3nnc(C)o3)cc2)on1 [Example 13, 3-Methyl-5-{7-[4-(5-methyl-1,3,4-oxadiazol-2-yl)phenoxy]-heptyl}isoxazole]",MIC50,[1],2.3 mg/L
same,MIC₈₀ (N) (Rhinovirus),[1],3.2 (2) micrograms per milliliter
"Cc1cc(CCCCCOc2c(C)cc(-c3nnc(C)o3)cc2C)on1 [Example 14, 5-{5-[2,6-Dimethyl-4-(5-methyl-1,3,4-oxadiazol-2-yl)phenoxy]pentyl}-3-methylisoxazole]",MIC50,[1],0.34 mg/L
same,MIC₈₀ (N) (Rhinovirus),[1],0.67 (2) micrograms per milliliter
